Measured values published in US9012153B2, “Method for screening olfactory sensibility inhibitor” (Kao Corporation, priority 2008, dated 2015).

Legend:
[1] = test system: voltage-dependent cation channel; experiment: Whole-cell recording of inward current in isolated olfactory receptor cells; type: cell-based, Cynops pyrrhogaster
Protocol: Olfactory receptor cells were isolated from newts (Cynops pyrrhogaster) through a known method (Kurahashi et al., J. Physiol. (1989), 419: 177-192) and bathed in a normal Ringer's solution. More specifically, each newt which had been hibernated in ice-water was double-pithed, and the skull thereof was cut, to thereby remove the olfactory membrane. The removed olfactory membrane was incubated in 0.1% collagenase solution at 37° C. for five minutes. After washing off collagenase, the membrane tissue was broken by means of a glass pipette, to thereby isolate olfactory cells. The normal Ringer's solution had the following composition: NaCl 110 mM, KCl 3.7 mM, CaCl2 3 mM, MgCl2 1 mM, glucose 15 mM, sodium pyruvate 1 mM, HEPES 2 mM, and Phenol Red 0.001% (w/v), with a pH of 7.4 (adjusted with NaOH).
The membrane current of the isolated olfactory cells was recorded through the whole-cell recording method, while the membrane potential was fixed (Kawai et al., J. Gen. Physiol. (1997), vol. 109: 265-272). The electrode employed was produced from borosilicate glass capillary (diameter: 1.2 mm) by means of a puller for electrode fabrication (PP-830, product of Narishige Scientific Instruments). […] Then, an electrode solution was added in the electrode, and an Ag—AgCl wire was inserted into the electrode. The Ag—AgCl wire was connected to a patch-clamp amplifier (Axopatch 1D, 200B, product of Axon Instrument), whereby fixation of the membrane potential and depolarization stimulation were performed. The employed electrode solution had the following composition: KCl 120 mM, HEPES 2 mM, and Phenol Red 0.001% (w/v), with a pH of 7.4 (adjusted with KOH). The membrane current was recorded by a computer which was connected by the mediation of the patch-clamp amplifier and an A/D converter (Digidata 1320, product of Axon Instrument). Each test substance was sprayed to the cells for stimulation, by means of a pressure-controller. The pressure controller is an apparatus which reduces the pressure of compressed air supplied by means of an air-compressor to a specific value under computer-controlled conditions and which feeds the compressed air for a predetermined period of time to a tail of the glass pipette in which the test substance has been charged (Ito et al., The Japanese Journal of Physiology, 1995, vol. 57, 127-133).
In order to investigate the effect of the test substance on the voltage-dependent cation channel activity, the membrane potential of the isolated olfactory cells was fixed to −100 mV, and depolarized to −20 mV for 20 ms at intervals of 200 ms. The peak amplitude of the inward current elicited immediately after depolarization was measured. Each of the test substances shown in Table 1 (1 μL) was mixed with the normal Ringer's solution (1 mL). Under continuous depolarization stimulation, the mixture was sprayed toward the olfactory cells (720 ms, at 50 kPa) through a glass pipette (tip diameter: 1 μm) that was placed such that the tip of the pipette was located in the vicinity ([…]) of the olfactory cells to add the mixture to the olfactory cells, and the change in inward current was monitored. Stimulation of one olfactory cell by the test substance was performed three times, and the three inward currents obtained from the cell were averaged. Each test substance was tested by three olfactory cells, and the three inward currents obtained from the cells were averaged. During the test, in very rare cases, the olfactory receptor responded to stimulation by the test substance, and inward current attributed to a CNG channel was observed. However, such cases were eliminated for evaluation. One conceivable reason for occurrence of such a case is that the test substance acts as an […] to the olfactory receptor on the olfactory cell employed in the test. CNG channel current is readily distinguishable from voltage-dependent channel current in terms of amplitude, peak shape, and duration. […]

[2] = test system: isovaleric acid (malodorous substance); experiment: Olfactory masking test based on sensory evaluation with 20 specialists; type: in vivo; parameters: key: 0 = no masking effect, 5 = complete masking effect; details: isovaleric acid (1%) 2 μL, test substance 4 μl, vaporized and admixed in PP bottle; scale 0 (No masking effect) to 5 (Complete masking effect)
Protocol: An olfactory masking test based on sensory evaluation was performed with 20 specialists. Isovaleric acid (1%) was used as a malodorous substance, and each of the substances listed in Table 2 was employed as a masking material. The malodorous substance (2 μL) and each test substance (4 μl) were separately absorbed by cotton balls (diameter: 1 cm), and placed in each injection syringe (capacity: 50 mL) at room temperature for 12 hours to vaporized the substance therein. Both the vaporized malodorous substance and the vaporized test substance were injected into a PP bottle (capacity: 500 mL) with a cap and admixed in the bottle. In evaluation, each specialist slightly opened the cap of the PP bottle and smelled the odor in the bottle, whereby the masking score was determined. The masking score was evaluated by the following six criteria, based on the intensity of odor in a PP bottle to which only the malodorous substance had been added.
1: Only slight masking effect
3: Satisfactory masking effect
4: Substantially complete masking effect
5: Complete masking effect

[3] = test substance 1 μL in 1 mL normal Ringer's solution, sprayed 720 ms at 50 kPa, depolarized from −100 mV to −20 mV, (1−b/a)×100, average of three cells
[4] = values calculated in the experiments of Example 1, repeated in Table 3

Compound	Percent inward current inhibition [1, 3] [%]	Percent inward current inhibition [1, 4] [%]	Masking score [2]
CC12CCC(CC1)C(C)(C)O2 [1,8-Cineole]	46.5	46.5	3.6
CCC(O)COC1CCCCC1C(C)(C)C (centres unmarked) [1-(2-tert-Butylcyclohexyloxy)-2-butanol]	27.1	27.1	1.7
CC1=CC(C)C(C=O)CC1 (centres unmarked) [2,4-Dimethyl-3-cyclohexene-1-carboxaldehyde]	79.9	79.9	4.5
CC(=CCC1CC=C(C)C1(C)C)CO (centres unmarked) [2-Methyl-4-(2,2,3-trimethyl-3-cyclopenten-1-yl)-2-buten-1-ol]	105.6	–	–
CC(C)(O)CCCC1=CCC(C=O)CC1 (centres unmarked) [4-(4-Hydroxy-4-methylpentyl)-3-cyclohexene-1-carboxaldehyde]	35.7	35.7	1.7
COc1ccc(C=O)cc1 [Anisaldehyde]	89.3	89.3	3.9
O=Cc1ccccc1 [Benzaldehyde]	95.4	95.4	4.6
CC(=O)OCc1ccccc1 [Benzyl acetate]	110.8	–	–
O=C(OCc1ccccc1)c1ccccc1 [Benzyl benzoate]	10.7	10.7	1.6
CC(C)=CCCC(C)=CC=O [Citral]	110.6	110.6	3.9
C=CC(C)CCCC(C)(C)O (centres unmarked) [Dihydromyrcenol]	109.0	109.0	4.8
CCOC(=O)C(C)C1CCCCC1 (centres unmarked) [Ethyl 2-cyclohexylpropionate]	48.7	48.7	3.0
CCOC(=O)C(C)CC (centres unmarked) [Ethyl 2-methylbutyrate]	42.0	–	–
CCOC(=O)C12CCCC1C1CCC2C1 (centres unmarked) [Ethyltricyclo[5.2.1.0^2,6]decane-2-carboxylate]	11.6	11.6	1.9
C=CCc1ccc(O)c(OC)c1 [Eugenol]	105.0	–	–
CC(C)=CCC/C(C)=C/CO [Geraniol]	90.1	90.1	3.9
CC(=O)OCCC(C)C [Isoamyl acetate]	92.0	92.0	4.5
C=CC(C)(O)CCC=C(C)C (centres unmarked) [Linalool]	106.5	106.5	4.1
C=CC(C)(CCC=C(C)C)OC(C)=O (centres unmarked) [Linalyl acetate]	43.3	43.3	3.0
CCCCCC1C(=O)CCC1CC(=O)OC (centres unmarked) [Methyl dihydrojasmonate]	107.1	–	–
CC/C=C\CCO [cis-3-Hexenol]	78.7	78.7	4.5
CCCCCCCCC=O [n-Nonanal]	107.4	–	–
CC(=O)OC1CCCCC1C(C)(C)C (centres unmarked) [o-tert-Butylcyclohexyl acetate]	23.8	23.8	1.8
CC(C=O)Cc1ccc(C(C)(C)C)cc1 (stereo not drawn) [p-tert-Butyl-α-methylhydrocinnamaldehyde]	57.9	57.9	–
C/C=C/C(=O)C1=C(C)CCCC1(C)C [β-Damascone]	56.1	56.1	2.4
OCCc1ccccc1 [β-Phenylethyl alcohol]	82.6	82.6	2.9
